Results reported in patent publication US4748155A, “Pharmacologically active tripeptides and process for their synthesis” (Eniricerche S.p.A., priority 1985, dated 1988).

Tested on: acetic acid-induced writhings in mice
Details: mouse, in vivo, ip
Method: The analgesic activity has been tested by means of the writhing test. As the painful agent, an aqueous solution of acetic acid at 3% was used, injected by intraperitoneal way (0.1 ml/10 g), and the number was recorded of animal' writhings during the observation time of 20 minutes.
Twenty female mice of Albino Swiss strain, weighing 25-28 g, were treated with the compound under test, dissolved in physiologic solution:dimethylsulphoxide (1:1), at the dosage of 0.1 ml/kg/i.p. Other 20 mice, of same strain, sex and weight, were treated with the solvent only. After 40 minutes, the acetic acid was administered to both groups, and the increase of writhings was recorded.

CC(C)C[C@@H](NC(=O)C(Cc1c[nH]c2ccccc12)C(=O)O)NC(=O)[C@@H]1CCC(=O)N1 (stereo partly drawn) [GLP-g-Leu-m-TRP-OH, N-(pyroglutamyl)-N'-[(R,S)-alpha-carboxy-beta-3-indolyl-propanoyl]-(S)-1,1-diamino-isopentane]
inhibition of the number of contorsions (writhings): 25%
